Experimental data taken from ChEMBL document CHEMBL1201862, “PubChem BioAssay data set” (2004).
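Assay format: 96-well plates, 48-hour exposure. GI50 = concentration required for 50% inhibition of growth.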 Calls of active or inactive are those of the source. Cut-off read from the data, not from the text of the source: active = GI50 up to about 1.1 µM and inactive = higher.

Assays:
Assay in all cases: DTP human tumour cell line panel, 48 h
786-0 = test system: 786-0
A498 = test system: A498
A549 = test system: A549
ACHN = test system: ACHN
BT-549 = test system: BT-549
CAKI-1 = test system: CAKI-1
CCRF-CEM = test system: CCRF-CEM
COLO 205 = test system: COLO 205
DU-145 = test system: DU-145
EKVX = test system: EKVX
HCC 2998 = test system: HCC 2998
HCT-116 = test system: HCT-116
HCT-15 = test system: HCT-15
HOP-62 = test system: HOP-62
HOP-92 = test system: HOP-92
HT-29 = test system: HT-29
Hs-578T = test system: Hs-578T
IGROV-1 = test system: IGROV-1
K562 = test system: K562
KM12 = test system: KM12
LOX IMVI = test system: LOX IMVI
M14 = test system: M14
MCF7 = test system: MCF7
MDA-MB-231 = test system: MDA-MB-231
MDA-MB-435 = test system: MDA-MB-435
MDA-N = test system: MDA-N
MOLT-4 = test system: MOLT-4
Malme-3M = test system: Malme-3M
NCI-H226 = test system: NCI-H226
NCI-H23 = test system: NCI-H23
NCI-H460 = test system: NCI-H460
NCI-H522 = test system: NCI-H522
NCI/ADR-RES = test system: NCI/ADR-RES
OVCAR-3 = test system: OVCAR-3
OVCAR-4 = test system: OVCAR-4
OVCAR-5 = test system: OVCAR-5
OVCAR-8 = test system: OVCAR-8
PC-3 = test system: PC-3
RPMI-8226 = test system: RPMI-8226
RXF 393 = test system: RXF 393
SF-268 = test system: SF-268
SF-295 = test system: SF-295
SF-539 = test system: SF-539
SK-MEL-28 = test system: SK-MEL-28
SK-MEL-2 = test system: SK-MEL-2
SK-MEL-5 = test system: SK-MEL-5
SK-OV-3 = test system: SK-OV-3
SN12C = test system: SN12C
SNB-19 = test system: SNB-19
SNB-75 = test system: SNB-75
SR = test system: SR
SW-620 = test system: SW-620
T47D = test system: T47D
TK-10 = test system: TK-10
U-251 = test system: U-251
UACC-257 = test system: UACC-257
UACC-62 = test system: UACC-62
UO-31 = test system: UO-31
HL-60 = test system: HL-60

Structure (SMILES): O=C(O)c1nc(-c2ccccc2)[nH]c1C(=O)O
- GI50 (786-0): 10.6 µM (inactive)
- GI50 (A498): 15.4 µM (inactive)
- GI50 (A549): 14 µM (inactive)
- GI50 (ACHN): 16.8 µM (inactive)
- GI50 (BT-549): 17.4 µM (inactive)
- GI50 (CAKI-1): 14.4 µM (inactive)
- GI50 (CCRF-CEM): 0.577 µM (active)
- GI50 (COLO 205): 17 µM (inactive)
- GI50 (DU-145): 15 µM (inactive)
- GI50 (EKVX): 17.4 µM (inactive)
- GI50 (HCC 2998): 5.94 µM (inactive)
- GI50 (HCT-116): 4.43 µM (inactive)
- GI50 (HCT-15): 14.3 µM
- GI50 (HOP-62): 16 µM (inactive)
- GI50 (HOP-92): 16.3 µM (inactive)
- GI50 (HT-29): 7.03 µM (inactive)
- GI50 (Hs-578T): 24.8 µM (inactive)
- GI50 (IGROV-1): 11.7 µM (inactive)
- GI50 (K562): 3.72 µM (inactive)
- GI50 (KM12): 4.65 µM (inactive)
- GI50 (LOX IMVI): 3.01 µM (inactive)
- GI50 (M14): 10.9 µM (inactive)
- GI50 (MCF7): 2.32 µM (inactive)
- GI50 (MDA-MB-231): 5.62 µM (inactive)
- GI50 (MDA-MB-435): 8.87 µM (inactive)
- GI50 (MDA-N): 11.8 µM (inactive)
- GI50 (MOLT-4): 1.04 µM (active)
- GI50 (Malme-3M): 15.3 µM (inactive)
- GI50 (NCI-H226): 14.8 µM (inactive)
- GI50 (NCI-H23): 13.9 µM (inactive)
- GI50 (NCI-H460): 15.4 µM (inactive)
- GI50 (NCI-H522): 13.1 µM (inactive)
- GI50 (NCI/ADR-RES): 27.7 µM (inactive)
- GI50 (OVCAR-3): 11.8 µM (inactive)
- GI50 (OVCAR-4): 16.8 µM (inactive)
- GI50 (OVCAR-5): 17.2 µM (inactive)
- GI50 (OVCAR-8): 14.1 µM (inactive)
- GI50 (PC-3): 5.32 µM (inactive)
- GI50 (RPMI-8226): 1.84 µM (inactive)
- GI50 (RXF 393): 13.5 µM (inactive)
- GI50 (SF-268): 16 µM (inactive)
- GI50 (SF-295): 16.7 µM (inactive)
- GI50 (SF-539): 7.8 µM (inactive)
- GI50 (SK-MEL-28): 16.6 µM (inactive)
- GI50 (SK-MEL-2): 7.76 µM (inactive)
- GI50 (SK-MEL-5): 15.1 µM (inactive)
- GI50 (SK-OV-3): 18.4 µM (inactive)
- GI50 (SN12C): 13.6 µM (inactive)
- GI50 (SNB-19): 12.5 µM (inactive)
- GI50 (SNB-75): 19.4 µM (inactive)
- GI50 (SR): 0.0188 µM (active)
- GI50 (SW-620): 2.47 µM (inactive)
- GI50 (T47D): 15.3 µM (inactive)
- GI50 (TK-10): 15.5 µM (inactive)
- GI50 (U-251): 4.18 µM (inactive)
- GI50 (UACC-257): 16.6 µM (inactive)
- GI50 (UACC-62): 17.2 µM (inactive)
- GI50 (UO-31): 12.1 µM (inactive)

Structure (SMILES): C1=Cc2ccccc2C1.C=C(C)c1ccccc1.[N-]=[N+]=Nc1ccccc1
- GI50 (786-0): > 100 µM (inactive)
- GI50 (A498): > 100 µM (inactive)
- GI50 (A549): > 100 µM (inactive)
- GI50 (ACHN): > 100 µM (inactive)
- GI50 (BT-549): > 100 µM (inactive)
- GI50 (CAKI-1): > 100 µM (inactive)
- GI50 (COLO 205): > 100 µM (inactive)
- GI50 (DU-145): > 100 µM (inactive)
- GI50 (EKVX): 38.5 µM (inactive)
- GI50 (HCT-116): 48.3 µM (inactive)
- GI50 (HCT-15): > 100 µM
- GI50 (HL-60): 62.4 µM (inactive)
- GI50 (HOP-62): > 100 µM (inactive)
- GI50 (HOP-92): 47.1 µM (inactive)
- GI50 (HT-29): 42.7 µM (inactive)
- GI50 (Hs-578T): 39.1 µM (inactive)
- GI50 (IGROV-1): > 100 µM (inactive)
- GI50 (K562): 46.9 µM (inactive)
- GI50 (KM12): 50.5 µM (inactive)
- GI50 (LOX IMVI): > 100 µM (inactive)
- GI50 (M14): > 100 µM (inactive)
- GI50 (MCF7): 31.3 µM (inactive)
- GI50 (MDA-MB-231): > 100 µM (inactive)
- GI50 (MDA-MB-435): 70.6 µM (inactive)
- GI50 (MDA-N): 72.3 µM (inactive)
- GI50 (MOLT-4): 96.2 µM (inactive)
- GI50 (Malme-3M): > 100 µM (inactive)
- GI50 (NCI-H226): 52.1 µM (inactive)
- GI50 (NCI-H23): > 100 µM (inactive)
- GI50 (NCI-H460): 90.4 µM (inactive)
- GI50 (NCI-H522): 34.3 µM (inactive)
- GI50 (NCI/ADR-RES): > 100 µM (inactive)
- GI50 (OVCAR-3): > 100 µM (inactive)
- GI50 (OVCAR-4): > 100 µM (inactive)
- GI50 (OVCAR-5): > 100 µM (inactive)
- GI50 (OVCAR-8): > 100 µM (inactive)
- GI50 (PC-3): > 100 µM (inactive)
- GI50 (RPMI-8226): 80 µM (inactive)
- GI50 (RXF 393): > 100 µM (inactive)
- GI50 (SF-268): > 100 µM (inactive)
- GI50 (SF-295): > 100 µM (inactive)
- GI50 (SF-539): > 100 µM (inactive)
- GI50 (SK-MEL-28): > 100 µM (inactive)
- GI50 (SK-MEL-2): > 100 µM (inactive)
- GI50 (SK-MEL-5): > 100 µM (inactive)
- GI50 (SK-OV-3): > 100 µM (inactive)
- GI50 (SN12C): > 100 µM (inactive)
- GI50 (SNB-19): > 100 µM (inactive)
- GI50 (SNB-75): 49 µM (inactive)
- GI50 (SR): > 100 µM (inactive)
- GI50 (SW-620): 67.3 µM (inactive)
- GI50 (T47D): 68.5 µM (inactive)
- GI50 (TK-10): > 100 µM (inactive)
- GI50 (U-251): 71.3 µM (inactive)
- GI50 (UACC-257): 41 µM (inactive)
- GI50 (UACC-62): 45.8 µM (inactive)
- GI50 (UO-31): > 100 µM (inactive)
